Key:
[1] = molecular target: T1, Human TOR (Homo sapiens, UniProt P42345); assay: Human TOR (mTOR) kinase assay, DELFIA format; type: biochemical
T1 construct: FLAG
Summary of the method: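 Purified FLAG-TOR (800 ng/mL) phosphorylates His6-S6K ([…]) with […] ATP in Hepes pH 7.4 buffer containing MnCl2, 2 h at room temperature. Phospho-Thr389 S6K detected by DELFIA using Europium-labelled anti-P(T389)-p70S6K antibody; enzyme inhibition calculated from signal.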

[2] = tested on: LNCaP (human prostate carcinoma); assay: Cell proliferation (MTS) assay, LNCaP; type: cell-based; details: three days treatment
Summary of the method: (§1)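 Cells plated at about 3000 per well in RPMI-1640/10% FBS were dosed with compound one day later. Viability was read by MTS conversion (absorbance 490 nm, 1–2 h) three days after treatment began. Effect is expressed as percent of vehicle-treated growth on the same plate.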

[3] = tested on: MDA435 (human breast adenocarcinoma); assay: Cell proliferation (MTS) assay, MDA435; type: cell-based; details: three days treatment
Summary of the method: as §1

[4] = tested on: DU145 (human prostate carcinoma/lymphocytic leukemia); assay: Cell proliferation (MTS) assay, DU145; type: cell-based; details: three days treatment
Summary of the method: as §1

[5] = tested on: non-small cell lung cancer (NSCLC) cell lines; assay: Tumor cell growth assay, combination with MEK inhibitor, NSCLC; type: cell-based, human
Procedure: (§2) Human tumor cell are all obtained from ATCC, and are cultured using standard cell culture methods. Cells are plated in 96-well culture plates at 1000 to 3000 cells per well. One day following plating, cells are treated with various doses of PI3K inhibitor Compound 4 or Compound 5 alone or with a low constant dose of MEK inhibitor 2-(2-chloro-4-iodoanilino)-N-(cycloprorylmethoxy-3,4-difluobenzamide) (1 μg/ml) or UO126 (5 μg/ml). UO126 is also known as 1,4-diamino-2,3-dicyano-1,4-bis[2-aminophenylthio]butadiene. In some experiments, cells are treated alone with various doses of the MEK inhibitor (2-(2-chloro-4-iodoanilino)-N-(cycloprorylmethoxy-3,4-difluobenzamide)), or HER2/neu inhibitor HKI-272, or mTOR inhibitor CCI-779, or with a low constant dose of Compound 4 (0.1 μg/ml). […] Three days after drug treatment, viable cell densities are determined by metabolic conversion (by viable cells) of the dye MTS, an established cell proliferation assay. […] The MTS assay results are read in a 96-well plate reader by measuring absorbance at 490 nm. The effect of each treatment is calculated as percent of control growth relative to the vehicle DMSO-treated cells grown in the same culture plate. […]

[6] = tested on: colon tumor cell lines; assay: Tumor cell growth assay, combination with CCI-779, colon lines; type: cell-based, human; details: compound 4 at 0.1 μg/ml
Procedure: as §2

[7] = tested on: PTEN-negative breast tumor cell lines; assay: Tumor cell growth assay, combination with CCI-779, PTEN-negative breast lines; type: cell-based, human; details: compound 4 at 0.1 μg/ml
Procedure: as §2

## COC[C@H]1OC(=O)/C(=C/N(CCO)C(C)(C)C)C2=C(O)C(=O)C3=C([C@H](OC(C)=O)C[C@@]4(C)C3CC[C@@H]4O)[C@]21C (stereo partly drawn) [Compound 4, (1E,4S,4aR,5R,6aS,7S)-1-{[tert-butyl(2-hydroxyethyl)amino]methylene}-7,11-dihydroxy-4-(methoxymethyl)-4a,6a-dimethyl-2,10-dioxo-1,2,4,4a,5,6,6a,7,8,9,9a,10-dodecahydroindeno[4,5-h]isochromen-5-yl acetate]
[1]; Table 1
  TOR IC50: 16 µg/mL
[1]; Table 2
  TOR IC50: >10 µg/mL
[2]; Table 1
  LNCaP IC50: 0.09 µg/mL
[2]; Table 2
  LNCaP IC50: 0.05 µg/mL
[3]; Table 1
  MDA435 IC50: 6 µg/mL
[3]; Table 2
  MDA435 IC50: 3.5 µg/mL
[4]; Table 1
  DU145 IC50: 1.5 µg/mL
[4]; Table 2
  DU145 IC50: 1 µg/mL
[5]
  growth inhibition in combination with MEK inhibitor 2-(2-chloro-4-iodoanilino)-N-(cycloprorylmethoxy-3,4-difluobenzamide): synergistic growth inhibition
[6]
  growth inhibition in combination with mTOR inhibitor CCI-779: synergistically inhibited growth
[7]
  growth inhibition in combination with mTOR inhibitor CCI-779: additive growth inhibition
[7]; listed as compound 4
  growth inhibition in combination with mTOR inhibitor CCI-779: synergistically inhibited growth
